The values that follow come from patent US20100179158A1, “INHIBITORS OF CYCLIC AMP PHOSPHODIESTERASES” (priority 2007, published 2010).

The target in experiment [1] is T1, PDE4D3 (Homo sapiens, UniProt Q08499).
T1 construct: targets used in the assays are full-length proteins (as opposed to simply the catalytic domain); expressed in transfected cells; host or cells: Schizosaccharomyces pombe, gene integrated at the cgs2 locus
The experiment can be described thus: cAMP assay in yeast strain expressing PDE4D3. It is filed as cell-based. On the technique in general: Cyclic AMP is a second messenger, typically raised through Gs and lowered through Gi signalling.

Another experiment addresses T2, PDE4D2 (Homo sapiens, UniProt Q08499).
T2 construct: targets used in the assays are full-length proteins (as opposed to simply the catalytic domain); expressed in transfected cells; host or cells: Schizosaccharomyces pombe
Kind of experiment: cAMP assay in yeast strain expressing PDE4D2. Format: cell-based.

For experiment [2], the target named is T1, PDE4D3. Kind of experiment: IC50 on PDE4D3. Particulars: read-out: IC50, PDE 4D3. It is filed as biochemical.
The target of another experiment is T3, PDE4B3 (Mus musculus, UniProt Q8VBU5).
T3 construct: targets used in the assays are full-length proteins (as opposed to simply the catalytic domain); expressed in transfected cells; host or cells: Schizosaccharomyces pombe, gene integrated at the cgs2 locus
T3 sequence (Q8VBU5 1-721): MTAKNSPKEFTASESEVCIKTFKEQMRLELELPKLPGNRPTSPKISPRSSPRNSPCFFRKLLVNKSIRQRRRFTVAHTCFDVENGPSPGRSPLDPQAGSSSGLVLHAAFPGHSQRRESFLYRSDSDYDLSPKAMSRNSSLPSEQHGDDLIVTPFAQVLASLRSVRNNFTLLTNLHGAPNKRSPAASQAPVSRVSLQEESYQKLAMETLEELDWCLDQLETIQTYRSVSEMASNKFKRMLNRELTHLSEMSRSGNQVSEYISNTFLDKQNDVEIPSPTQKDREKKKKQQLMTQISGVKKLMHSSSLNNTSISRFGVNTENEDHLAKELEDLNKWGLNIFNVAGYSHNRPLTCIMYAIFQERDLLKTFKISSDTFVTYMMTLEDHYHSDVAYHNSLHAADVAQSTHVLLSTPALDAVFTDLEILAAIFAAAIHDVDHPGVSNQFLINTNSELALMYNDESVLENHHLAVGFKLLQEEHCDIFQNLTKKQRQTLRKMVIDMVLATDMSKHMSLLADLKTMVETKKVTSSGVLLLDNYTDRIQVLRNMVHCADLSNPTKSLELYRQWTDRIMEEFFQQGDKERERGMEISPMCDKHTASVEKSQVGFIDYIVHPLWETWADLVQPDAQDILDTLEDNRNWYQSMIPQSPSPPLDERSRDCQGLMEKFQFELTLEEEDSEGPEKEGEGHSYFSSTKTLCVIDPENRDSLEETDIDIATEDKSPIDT
Kind of experiment: cAMP assay in yeast strain expressing PDE4B3. It is filed as cell-based, murine.

For experiment [3], the target named is T4, PDE4A1 (Mus musculus, UniProt O89084).
T4 construct: targets used in the assays are full-length proteins (as opposed to simply the catalytic domain); expressed in transfected cells; host or cells: Schizosaccharomyces pombe, gene integrated at the cgs2 locus
T4 sequence (O89084 1-610 isoform O89084-2): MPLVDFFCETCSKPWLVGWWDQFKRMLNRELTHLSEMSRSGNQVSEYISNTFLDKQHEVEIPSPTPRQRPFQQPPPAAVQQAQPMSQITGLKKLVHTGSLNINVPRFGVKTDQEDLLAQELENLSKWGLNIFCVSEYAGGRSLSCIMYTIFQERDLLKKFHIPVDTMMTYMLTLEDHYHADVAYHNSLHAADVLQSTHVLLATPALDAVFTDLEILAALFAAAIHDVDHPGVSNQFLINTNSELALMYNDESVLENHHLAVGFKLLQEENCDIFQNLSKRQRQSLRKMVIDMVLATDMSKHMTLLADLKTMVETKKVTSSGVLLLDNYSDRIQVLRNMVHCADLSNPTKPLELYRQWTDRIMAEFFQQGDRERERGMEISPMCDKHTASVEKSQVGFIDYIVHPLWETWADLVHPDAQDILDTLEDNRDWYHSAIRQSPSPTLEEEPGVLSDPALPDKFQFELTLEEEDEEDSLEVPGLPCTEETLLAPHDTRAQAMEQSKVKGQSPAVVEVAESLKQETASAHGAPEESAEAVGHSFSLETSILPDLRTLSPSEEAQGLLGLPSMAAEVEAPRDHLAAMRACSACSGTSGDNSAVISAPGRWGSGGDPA
Kind of experiment: cAMP assay in yeast strain expressing PDE4A1. Format: cell-based, murine.

In the next experiment the target is T5, PDE4A5 (Rattus norvegicus, UniProt P54748).
T5 construct: targets used in the assays are full-length proteins (as opposed to simply the catalytic domain); expressed in transfected cells; host or cells: Schizosaccharomyces pombe, gene integrated at the cgs2 locus
T5 sequence (P54748 1-844): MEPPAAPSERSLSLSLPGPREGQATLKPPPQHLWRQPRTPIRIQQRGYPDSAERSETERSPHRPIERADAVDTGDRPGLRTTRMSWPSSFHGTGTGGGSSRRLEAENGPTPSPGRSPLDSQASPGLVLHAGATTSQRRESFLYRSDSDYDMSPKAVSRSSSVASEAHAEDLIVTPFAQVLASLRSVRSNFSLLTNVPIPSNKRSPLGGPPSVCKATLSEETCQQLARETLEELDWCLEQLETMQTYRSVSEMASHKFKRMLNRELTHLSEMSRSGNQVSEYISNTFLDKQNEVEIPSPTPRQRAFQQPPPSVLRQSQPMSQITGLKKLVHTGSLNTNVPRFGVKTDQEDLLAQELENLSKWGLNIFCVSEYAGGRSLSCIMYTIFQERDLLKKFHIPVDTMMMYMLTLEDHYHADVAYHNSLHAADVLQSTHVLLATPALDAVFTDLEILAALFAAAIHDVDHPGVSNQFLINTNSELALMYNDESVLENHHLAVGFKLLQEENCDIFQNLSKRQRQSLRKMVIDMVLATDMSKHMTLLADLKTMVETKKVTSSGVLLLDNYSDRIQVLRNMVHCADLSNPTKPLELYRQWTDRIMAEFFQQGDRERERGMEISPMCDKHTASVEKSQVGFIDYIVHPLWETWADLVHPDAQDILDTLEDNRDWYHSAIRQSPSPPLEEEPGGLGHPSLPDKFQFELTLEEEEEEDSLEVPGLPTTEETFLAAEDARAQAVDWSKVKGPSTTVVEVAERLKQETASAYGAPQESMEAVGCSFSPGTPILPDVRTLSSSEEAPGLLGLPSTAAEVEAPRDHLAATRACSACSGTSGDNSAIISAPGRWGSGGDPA
The experiment can be described thus: cAMP assay in yeast strain expressing PDE4A5. It is filed as cell-based.

Experiment [4] relates to PDE4A, PDE4B, PDE4D, PDE7A. Kind of experiment: Overall PDE inhibitor profile from the yeast assays (table footnotes, summary). Format: cell-based. The source says:
PDE inhibitors were identified using methods described herein, such as high throughput drug screens on genetically engineered fission yeast strains that express drug targets (e.g., PDE4A and/or PDE4B, which are anti-inflammatory targets). PDE inhibitors were identified based on their ability to stimulate growth and compounds were identified because they were effective in live cells. In addition, targets used in the assays are full-length proteins (as opposed to simply the catalytic domain) and the assay used included a built-in toxicity test, permeability test and stability test. The inhibitors identified display a very high degree of target specificity. Compounds identified include inhibitors that act on two of three PDE4 family enzymes and inhibitors that act on combinations of PDE4 and PDE7 strains. […] Limited inhibition of PDE4D by a PDE inhibitor is desirable, in view of the fact that inhibition of PDE4D causes emesis and cardiac arrhythmias. Subtype specificity was confirmed by means of cAMP assays.
Cells were pregrown in EMM medium [MP Biomedicals (Solon, OH), 3% glucose, filter-sterilized to avoid carmelization, which would introduce variability into the optical density of the medium] containing from 0 mM to 2.5 mM cAMP (or either 0.5 mM or 1.0 mM cGMP). This was to repress expression of the fbp1-ura4 reporter prior to exposure of cells to 5FOA medium. Cells were grown at 30° C. to exponential phase (approximately 10^7 cells/ml). Cells were collected by centrifugation and resuspended in 5FOA medium, and 25 μl were transferred to 384-well microtiter dishes (untreated, with flat clear bottoms) that had been pre-filled with 25 μl 5FOA medium and pre-pinned with 100 nl of compounds (stock solutions were generally 10 mM). Starting cell concentrations ranged from 0.5×10^5 to 4×10^5 cells/ml depending on the screening strain. […] Other positive control dishes contained 5 mM cAMP in the 5FOA medium for PDEs that lack appropriate control compounds. Cultures were grown for 48 hours at 30° C., sealed in an airtight container with moist paper towels to prevent evaporation. Optical densities (OD600) of cultures were measured using a microplate reader. Bioinformatic analysis of the results to determine composite Z scores was performed as previously described (1, 3).

The target in experiment [5] is T4, PDE4A1. Kind of experiment: IC50 on PDE4A1. Particulars: read-out: IC50, PDE 4A1. Format: biochemical, murine.

“Also recorded” adds a separate entry of the source.

T1 sequence (Q08499 1-673 isoform Q08499-2): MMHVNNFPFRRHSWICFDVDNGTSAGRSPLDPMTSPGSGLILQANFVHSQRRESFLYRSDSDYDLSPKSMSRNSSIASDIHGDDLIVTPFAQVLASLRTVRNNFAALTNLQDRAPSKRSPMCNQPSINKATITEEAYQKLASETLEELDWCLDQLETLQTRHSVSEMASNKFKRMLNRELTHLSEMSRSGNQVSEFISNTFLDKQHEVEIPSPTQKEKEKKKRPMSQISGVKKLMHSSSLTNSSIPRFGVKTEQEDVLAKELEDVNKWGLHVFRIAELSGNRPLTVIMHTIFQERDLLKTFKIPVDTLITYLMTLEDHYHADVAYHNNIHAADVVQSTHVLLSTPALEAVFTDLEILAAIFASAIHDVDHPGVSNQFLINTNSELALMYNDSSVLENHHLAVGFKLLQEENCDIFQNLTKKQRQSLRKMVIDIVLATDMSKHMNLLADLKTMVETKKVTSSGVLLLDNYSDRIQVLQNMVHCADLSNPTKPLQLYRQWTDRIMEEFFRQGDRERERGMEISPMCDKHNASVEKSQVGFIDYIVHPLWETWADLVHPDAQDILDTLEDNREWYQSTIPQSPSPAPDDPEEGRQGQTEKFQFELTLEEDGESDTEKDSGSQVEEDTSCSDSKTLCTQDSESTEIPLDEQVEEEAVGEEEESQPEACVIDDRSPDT
T2 sequence (Q08499 303-809): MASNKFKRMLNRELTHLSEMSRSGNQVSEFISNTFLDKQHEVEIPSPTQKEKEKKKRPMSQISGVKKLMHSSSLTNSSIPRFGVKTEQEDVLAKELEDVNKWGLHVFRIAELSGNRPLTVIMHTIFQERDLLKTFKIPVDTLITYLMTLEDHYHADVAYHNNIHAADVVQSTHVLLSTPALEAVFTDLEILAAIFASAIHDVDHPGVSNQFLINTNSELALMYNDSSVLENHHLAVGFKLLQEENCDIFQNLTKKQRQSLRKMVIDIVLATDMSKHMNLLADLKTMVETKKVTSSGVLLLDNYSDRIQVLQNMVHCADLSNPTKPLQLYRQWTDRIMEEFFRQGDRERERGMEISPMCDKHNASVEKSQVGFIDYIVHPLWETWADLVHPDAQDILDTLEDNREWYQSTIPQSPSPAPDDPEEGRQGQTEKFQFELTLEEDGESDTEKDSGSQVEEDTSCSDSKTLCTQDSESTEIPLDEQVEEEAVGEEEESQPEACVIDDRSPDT

In the case of `Cc1cc(C)nc(SCCS(=O)(=O)c2ccc(C(C)(C)C)cc2)n1` [Compound 26], on PDE4D3 [1], the “cAMP Response (% rolipram), PDE 4D3” value is 14.00 % rolipram. Further, the “cAMP Response (% rolipram), PDE 4D2” value at PDE4D2 is “ND ND ND 17.00 ND % rolipram”. Besides, the IC50 on PDE4D3 [2] and at PDE4A1 [5] was 500 nM throughout. Also, on PDE4B3, the “cAMP Response (% rolipram), PDE 4B3” value was 92.00 % rolipram. In addition, at PDE4A1 [3], the “cAMP Response (% rolipram), PDE 4A1” value is recorded as 96.00 % rolipram. In addition, on PDE4A5, the “cAMP Response (% rolipram), PDE 4A5” value amounted to 57.30 % rolipram. In addition, the “PDE inhibitor profile in words (table footnote / summary)” value in experiment [4] is recorded as “effective PDE4A/4B inhibitor that exhibits limited/essentially no inhibition of PDE4D; also recorded: effective PDE4A/4B inhibitor; also recorded: little or no inhibition of PDE4D; also recorded: (1) Strong PDE4A, 4B inhibitor”.

Broadly, the IC50 is the midpoint of a concentration-inhibition curve.
